# Source: the supplement of paper PMC8149375
# How the values were obtained:
# Details in all cases: treatment: drug + dasatinib (fixed dose, not stated); 5 days
# 769-P [1] = test: GI50 of drug in presence of dasatinib; higher = less potent
# Experimental: (§1)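 Primary HTS combination arm: 8 RCC cell lines treated with 8 doses (up to 10 uM) of each library drug plus a fixed dose of dasatinib (dose not stated) for 5 days; viability read by CellTiter-Glo and normalised to DMSO. GI50 was fitted with XLfit, AUC is the area under the dose-response curve, and minimum viability is the lowest fraction of DMSO viability across doses.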
# 786-O [2] = test: as above
# Experimental: as §1
# A498 [3] = test: as above
# Experimental: as §1
# ACHN [4] = test: as above
# Experimental: as §1
# CAKI-1 [5] = test: as above
# Experimental: as §1
# SN12C [6] = test: as above
# Experimental: as §1
# TK-10 [7] = test: as above
# Experimental: as §1
# UO-31 [8] = test: as above
# Experimental: as §1
# 769-P [9] = test: minimum viability across doses, drug + dasatinib, relative to DMSO (fraction); higher = less growth inhibition
# Experimental: as §1
# 786-O [10] = test: as above
# Experimental: as §1
# A498 [11] = test: as above
# Experimental: as §1
# ACHN [12] = test: as above
# Experimental: as §1
# CAKI-1 [13] = test: as above
# Experimental: as §1
# SN12C [14] = test: as above
# Experimental: as §1
# TK-10 [15] = test: as above
# Experimental: as §1
# UO-31 [16] = test: as above
# Experimental: as §1
# 769-P [17] = test: AUC of dose-response viability curve, drug + dasatinib, normalised to DMSO (arbitrary (AUC of normalised viability)); higher = less growth inhibition
# Experimental: as §1
# 786-O [18] = test: as above
# Experimental: as §1
# A498 [19] = test: as above
# Experimental: as §1
# ACHN [20] = test: as above
# Experimental: as §1
# CAKI-1 [21] = test: as above
# Experimental: as §1
# SN12C [22] = test: as above
# Experimental: as §1
# TK-10 [23] = test: as above
# Experimental: as §1
# UO-31 [24] = test: as above
# Experimental: as §1
GI50 of drug (786-O [2]),GI50 of drug (ACHN [4]),SMILES,GI50 of drug (769-P [1]),GI50 of drug (A498 [3]),GI50 of drug (CAKI-1 [5]),GI50 of drug (SN12C [6]),GI50 of drug (TK-10 [7]),GI50 of drug (UO-31 [8]),minimum viability across doses (769-P [9]),minimum viability across doses (786-O [10]),minimum viability across doses (A498 [11]),minimum viability across doses (ACHN [12]),minimum viability across doses (CAKI-1 [13]),minimum viability across doses (SN12C [14]),minimum viability across doses (TK-10 [15]),minimum viability across doses (UO-31 [16]),AUC of dose-response viability curve (769-P [17]),AUC of dose-response viability curve (786-O [18]),AUC of dose-response viability curve (A498 [19]),AUC of dose-response viability curve (ACHN [20]),AUC of dose-response viability curve (CAKI-1 [21]),AUC of dose-response viability curve (SN12C [22]),AUC of dose-response viability curve (TK-10 [23]),AUC of dose-response viability curve (UO-31 [24])
> 10 µM,> 10 µM,CCOC(=O)C1=C(N)Oc2ccc(Br)cc2[C@H]1[C@H](C#N)C(=O)OCC [HA14-1] + Cc1nc(Nc2ncc(C(=O)Nc3c(C)cccc3Cl)s2)cc(N2CCN(CCO)CC2)n1 [dasatinib],> 10 µM,> 10 µM,> 10 µM,> 10 µM,> 10 µM,> 10 µM,0.737,0.624,0.797,0.579,0.628,0.69,0.725,0.952,2.77,2.65,3.14,2.17,2.35,2.54,2.71,3.92
0.0997 µM,0.00538 µM,COc1ccc(S(=O)(=O)N(C(C)=O)c2ccccc2/C=C/c2cc[n+]([O-])cc2)cc1 [HMN-214] + Cc1nc(Nc2ncc(C(=O)Nc3c(C)cccc3Cl)s2)cc(N2CCN(CCO)CC2)n1 [dasatinib],0.278 µM,0.387 µM,0.0744 µM,0.342 µM,0.609 µM,0.499 µM,0.0839,0.00332,0.124,0.102,0.121,0.172,0.297,0.00841,1.95,1.18,2.04,1.15,1.32,1.78,2.02,2.65
0.0466 µM,0.0147 µM,CCS(=O)(=O)Nc1ccc2c(c1)/C(=C(/Nc1ccc(CN3CCCCC3)cc1)c1ccccc1)C(=O)N2 [Hesperadin] + Cc1nc(Nc2ncc(C(=O)Nc3c(C)cccc3Cl)s2)cc(N2CCN(CCO)CC2)n1 [dasatinib],0.327 µM,0.441 µM,0.0455 µM,0.0826 µM,0.713 µM,0.357 µM,0.0628,0.0121,0.109,0.00666,0.0323,0.00226,0.0643,0.0118,1.86,1.2,2.05,1.18,1.15,1.26,2.17,2.5
0.373 µM,0.22 µM,O=C(Nc1cc(C(F)(F)F)cc(C(F)(F)F)c1)c1cc(Cl)ccc1O [IMD 0354] + Cc1nc(Nc2ncc(C(=O)Nc3c(C)cccc3Cl)s2)cc(N2CCN(CCO)CC2)n1 [dasatinib],0.557 µM,1.7 µM,0.481 µM,1.34 µM,0.759 µM,2.03 µM,0.00617,0.00625,0.0122,0.00153,0.0138,0.00339,0.07,0.0139,1.9,1.62,2.92,1.29,1.85,1.97,2.03,4.26
0.00488 µM,0.00303 µM,CC(C)n1nc(-c2ccc3oc(N)nc3c2)c2c(N)ncnc21 [INK 128] + Cc1nc(Nc2ncc(C(=O)Nc3c(C)cccc3Cl)s2)cc(N2CCN(CCO)CC2)n1 [dasatinib],0.0147 µM,0.0338 µM,0.00918 µM,0.0131 µM,0.00996 µM,0.0138 µM,0.0625,0.00403,0.0897,0.0339,0.0244,0.0733,0.0156,0.00639,0.95,0.59,1.19,0.554,0.693,0.931,0.838,0.741
> 10 µM,> 10 µM,CS(=O)(=O)O.Cc1ccc(NC(=O)c2ccc(CN3CCN(C)CC3)cc2)cc1Nc1nccc(-c2cccnc2)n1 [Imatinib Mesylate] + Cc1nc(Nc2ncc(C(=O)Nc3c(C)cccc3Cl)s2)cc(N2CCN(CCO)CC2)n1 [dasatinib],> 10 µM,> 10 µM,> 10 µM,> 10 µM,> 10 µM,> 10 µM,0.562,0.584,0.945,0.595,0.603,0.688,0.666,0.683,2.34,2.69,3.53,2.48,2.36,2.49,2.85,3.49
8.58 µM,0.0785 µM,O=C(c1ccc(/C=C/c2n[nH]c3ccccc23)cc1)N1CCNCC1 [KW 2449] + Cc1nc(Nc2ncc(C(=O)Nc3c(C)cccc3Cl)s2)cc(N2CCN(CCO)CC2)n1 [dasatinib],2.78 µM,> 10 µM,2.54 µM,1.24 µM,> 10 µM,3.52 µM,0.162,0.425,0.521,0.159,0.15,0.0456,0.611,0.0258,2.33,2.58,3.27,1.64,2.03,2.05,2.89,3.7
0.0149 µM,0.0433 µM,O=C(Cc1ccc(-c2ccc(OCCN3CCOCC3)cc2)cn1)NCc1ccccc1 [KX2-391] + Cc1nc(Nc2ncc(C(=O)Nc3c(C)cccc3Cl)s2)cc(N2CCN(CCO)CC2)n1 [dasatinib],0.0359 µM,0.0776 µM,0.0295 µM,0.0467 µM,0.104 µM,0.0926 µM,0.0616,0.00445,0.166,0.1,0.111,0.114,0.243,0.00946,1.09,0.764,1.78,1.23,1.12,1.34,1.69,1.77
8.55 µM,1.28 µM,COc1cc2nccc(Oc3ccc(NC(=O)Nc4ccc(F)cc4F)c(F)c3)c2cc1OC [Ki8751] + Cc1nc(Nc2ncc(C(=O)Nc3c(C)cccc3Cl)s2)cc(N2CCN(CCO)CC2)n1 [dasatinib],1.09 µM,> 10 µM,1.41 µM,> 10 µM,> 10 µM,> 10 µM,0.304,0.483,1.04,0.352,0.154,0.546,0.683,0.735,2.15,2.33,4.09,1.89,1.95,2.37,2.6,3.73
6.69 µM,0.176 µM,CS(=O)(=O)CCNCc1ccc(-c2ccc3ncnc(Nc4ccc(OCc5cccc(F)c5)c(Cl)c4)c3c2)o1.Cc1ccc(S(=O)(=O)O)cc1.Cc1ccc(S(=O)(=O)O)cc1 [Lapatinib Ditosylate (Tykerb)] + Cc1nc(Nc2ncc(C(=O)Nc3c(C)cccc3Cl)s2)cc(N2CCN(CCO)CC2)n1 [dasatinib],0.401 µM,> 10 µM,3.85 µM,> 10 µM,3.34 µM,5.85 µM,0.18,0.426,0.798,0.352,0.211,0.606,0.3,0.35,1.77,2.41,3.08,1.7,2.03,2.34,2.34,3.08
< 0.003 µM,> 10 µM,Nc1cccc2c1CN(C1CCC(=O)NC1=O)C2=O (stereo unspecified) [Lenalidomide (Revlimid)] + Cc1nc(Nc2ncc(C(=O)Nc3c(C)cccc3Cl)s2)cc(N2CCN(CCO)CC2)n1 [dasatinib],> 10 µM,> 10 µM,> 10 µM,> 10 µM,> 10 µM,> 10 µM,0.497,0.488,0.989,0.503,0.656,0.706,0.666,1.19,2.51,2.61,3.71,2.05,2.41,2.55,2.56,4.59
> 10 µM,3.71 µM,Cc1ccc(F)c(NC(=O)Nc2ccc(-c3cccc4[nH]nc(N)c34)cc2)c1 [Linifanib (ABT-869)] + Cc1nc(Nc2ncc(C(=O)Nc3c(C)cccc3Cl)s2)cc(N2CCN(CCO)CC2)n1 [dasatinib],4 µM,9.11 µM,7.59 µM,1.87 µM,3.45 µM,> 10 µM,0.27,0.557,0.279,0.244,0.213,0.312,0.231,0.729,2.33,2.63,3.28,2.4,2.21,2.25,2.58,3.5
> 10 µM,2.97 µM,C[C@]1(O)C[C@@H](c2nc(-c3ccc4ccc(-c5ccccc5)nc4c3)c3c(N)nccn32)C1 [Linsitinib (OSI-906)] + Cc1nc(Nc2ncc(C(=O)Nc3c(C)cccc3Cl)s2)cc(N2CCN(CCO)CC2)n1 [dasatinib],> 10 µM,> 10 µM,2.6 µM,> 10 µM,> 10 µM,> 10 µM,0.527,0.689,0.824,0.361,0.259,0.592,0.55,0.647,2.3,2.64,3.31,1.89,2.2,2.28,2.43,3.19
> 10 µM,2.83 µM,Cn1cnc(-c2cc3nccc(Oc4ccc(NC(=S)NC(=O)Cc5ccccc5)cc4F)c3s2)c1 [MGCD-265] + Cc1nc(Nc2ncc(C(=O)Nc3c(C)cccc3Cl)s2)cc(N2CCN(CCO)CC2)n1 [dasatinib],> 10 µM,> 10 µM,3.63 µM,> 10 µM,> 10 µM,5.72 µM,0.557,0.646,0.676,0.44,0.256,0.515,0.727,0.107,2.39,2.64,3.49,2.13,2.21,2.38,2.82,3.44
